The results in this text go back to patent US20030018061A1, “Novel remedies with the use of beta 3 agonist” (priority 2000, published 2003).

Series [1] concerns Mice fasted overnight, glucose loaded. Nature of the series: Antidiabetic effect (II): plasma glucose after glucose loading in fasted mice, glibenclamide and β3 agonist. Type of series: in vivo. The conditions noted are these: 1 hour after glucose load (1 g/kg s.c.), oral GLI 10 mg/kg, compound a 10 mg/kg, d 0.3 mg/kg, e, g 3 mg/kg, i 1 mg/kg, vs glucose loading only. The protocol:
Mice fasted overnight were orally administered with glibenclamide (GLI: 10 mg/kg), a β3 agonist (compound a: 10 mg/kg; compound c: 0.3 mg/kg; compound d: 0.3 mg/kg; compound e: 3 mg/kg; compound g: 3 mg/kg; compound h: 1 mg/kg; compound i: 1 mg/kg), or GLI and a β3 agonist (compound a, compound c, compound d, compound e, compound g, compound h, and compound i) in combination (each dosage was the same as the aforementioned), and immediately glucose (1 g/kg, subcutaneous injection) was loaded. Blood was collected after 1 hour, and the amount of glucose contained in blood plasma was measured.
In this combined use, hypoglycemia, which is a side effect of glibenclamide, was not observed.

Series [2] concerns human urinary bladder compression muscle. Nature of the series: Relaxation of carbachol-contracted human urinary bladder compression muscle. It is filed as cell-based. Conditions: for relaxation of bladder compression muscle, combination with propiverine: 10^−6 M propiverine plus compound (a, b, f, g 10^−9 M; c, d 10^−10 M; e, h, i 10^−8 M); for relaxation of bladder compression muscle, combination with propiverine / relaxation of bladder compression muscle, combination with oxybutynin / relaxation of bladder compression muscle, combination with tolterodine: in comparison with each compound alone; for relaxation of bladder compression muscle, combination with oxybutynin: 10^−9 M oxybutynin plus compound (a, b, f, g 10^−9 M; c 10^−10 M; e, h, i 10^−8 M); for relaxation of bladder compression muscle, combination with tolterodine: 10^−9 M tolterodine plus compound (a, b, f, g 10^−9 M; d 10^−10 M; e, h, i 10^−8 M); for concentration at which the bladder compression muscle was significantly relaxed / concentration at which the muscle was not relaxed significantly: contraction provoked by carbachol (0.5×10^−6 M), each compound alone.

Series [3] has as its system Mice. The series is described as follows: Antilipemic effect (II): plasma triglyceride in mice, bezafibrate and β3 agonist. Conditions: oral, 2 weeks; administered solely: BEZ 3 mg/kg; compound c, d 0.3 mg/kg; e, g 3 mg/kg; h, i 1 mg/kg. Type of series: in vivo.
Description: Mice were orally administered with bezafibrate (BEZ: 3 mg/kg), a β3 agonist (compound c: 0.3 mg/kg; compound d: 0.3 mg/kg; compound e: 3 mg/kg; compound g: 3 mg/kg; compound h: 1 mg/kg; compound i: 1 mg/kg), or BEZ and a β3 agonist (compound c, compound d, compound e, compound g, compound h, and compound i) in combination (each dosage was the same as the aforementioned) for 2 weeks. Blood was collected thereafter, and the amount of triglyceride contained in blood plasma was measured.
In series [4] the test system is Mice induced with obesity by feeding with a high fat diet. The series is described as follows: Antiobestic effect (II): body weight of high fat diet obese mice, orlistat and β3 agonist. Type of series: in vivo. Conditions: oral, 2 weeks; orlistat 1 mg/kg; compound c, d 0.3 mg/kg; e, g 3 mg/kg; h, i 1 mg/kg; alone or combined at same doses. The method, then:
Mice induced with obesity by feeding with a high fat diet for 2 months were orally administered with orlistat (1 mg/kg), a β3 agonist (compound c: 0.3 mg/kg; compound d: 0.3 mg/kg; compound e: 3 mg/kg; compound g: 3 mg/kg; compound h: 1 mg/kg; compound i: 1 mg/kg), or orlistat and a β3 agonist (compound c, compound d, compound e, compound g, compound h, and compound i) in combination (each dosage was the same as the aforementioned) for 2 weeks and bred, and body weight was measured.

Series [5] has as its system Genetically diabetic mice. The series is described as follows: Antidiabetic effect (III): genetically diabetic mice, rosiglitazone and β3 agonist. It is filed as in vivo. The conditions noted are these: oral, 2 weeks; ROS 1 mg/kg; compound c, d 0.3 mg/kg; e, g 3 mg/kg; h, i 1 mg/kg; alone or combined. The protocol:
Genetically diabetic mice were orally administered with rosiglitazone (ROS: 1 mg/kg), a β3 agonist (compound c: 0.3 mg/kg; compound d: 0.3 mg/kg; compound e: 3 mg/kg; compound g: 3 mg/kg; compound h: 1 mg/kg; compound i: 1 mg/kg), or ROS and a β3 agonist (compound c, compound d, compound e, compound g, compound h, and compound i) in combination (each dosage was the same as the aforementioned) for 2 weeks. Blood was collected thereafter, and the amount of glucose contained in blood plasma was measured.

Series [6] concerns Mice induced with obesity by feeding with a high fat diet. Nature of the series: Antiobestic effect (I): body weight of high fat diet obese mice, sibutramine and β3 agonist. It is filed as in vivo. Conditions: oral, 2 weeks; SIB 1 mg/kg; compound c, d 0.3 mg/kg; e, g 3 mg/kg; h, i 1 mg/kg; alone or combined at same doses. The method, then:
Mice induced with obesity by feeding with a high fat diet for 2 months were orally administered with sibutramine (SIB: 1 mg/kg), a β3 agonist (compound c: 0.3 mg/kg; compound d: 0.3 mg/kg; compound e: 3 mg/kg; compound g: 3 mg/kg; compound h: 1 mg/kg; compound i: 1 mg/kg), or SIB and a β3 agonist (compound c, compound d, compound e, compound g, compound h, and compound i) in combination (each dosage was the same as the aforementioned) for 2 weeks and bred, and body weight was measured.

Series [7] relates to Genetically diabetic mice. The series is described as follows: Antidiabetic effect (IV): genetically diabetic mice, acarbose and β3 agonist. Type of series: in vivo. Conditions: oral, 2 weeks; ACA 1 mg/kg; compound c, d 0.3 mg/kg; e, g 3 mg/kg; h, i 1 mg/kg; alone or combined.
Description: Genetically diabetic mice were orally administered with acarbose (ACA: 1 mg/kg), a β3 agonist (compound c: 0.3 mg/kg; compound d: 0.3 mg/kg; compound e: 3 mg/kg; compound g: 3 mg/kg; compound h: 1 mg/kg; compound i: 1 mg/kg), or ACA and a β3 agonist (compound c, compound d, compound e, compound g, compound h, and compound i) in combination (each dosage was the same as the aforementioned) for 2 weeks. Blood was collected thereafter, and the amount of glucose contained in blood plasma was measured.
The test system of series [8] is Mice. The series is described as follows: Antidiabetic effect: plasma glucose in mice, insulin and β3 agonist. It is filed as in vivo. The conditions noted are these: 30 min after dosing; INS 0.2 U/kg intraperitoneal; oral compound a 10 mg/kg; c, d 0.3 mg/kg; e, g 3 mg/kg; h, i 1 mg/kg; alone or combined. The protocol: Mice were administered with insulin (INS: 0.2 U/kg, intraperitoneal injection), a β3 agonist (oral administration of compound a: 10 mg/kg; compound c: 0.3 mg/kg; compound d: 0.3 mg/kg; compound e: 3 mg/kg; compound g: 3 mg/kg; compound h: 1 mg/kg; compound i: 1 mg/kg, respectively), or INS and a β3 agonist (compound a, compound c, compound d, compound e, compound g, compound h, and compound i) in combination (each dosage and administration route was the same as the aforementioned), blood was collected after 30 min, and the amount of glucose contained in blood plasma was measured.

Series [9] deals with salivation induced with pilocarpine. The series is described as follows: Mouth dryness: suppression of salivation induced with pilocarpine (method of Nagao et al.). It is filed as in vivo. The text has this: Examples of a selectable index of toxicity include mouth dryness, which is cited as a side effect of anticholinergic agents. Such mouth dryness can be measured by evaluating suppression of salivation induced with pilocarpine in accordance with the method of Nagao et al. (Folia Pharmacologica Japonica, Vol. 113, p156-166 (1999)). Further, elevation of blood pressure that is cited as a side effect of sibutramine can also be employed as an index of toxicity. Such elevation of blood pressure can be determined through use of a pressure transducer. Gastrointestinal dysfunction (fatty stool, defecation increase, abdominal pain, impending defecation desire) that is cited as a side effect of orlistat can also be employed as an index of toxicity. Such gastrointestinal dysfunction can be examined by analyzing the stool amount and the stool composition. Promotion of appetite that is cited as a side effect of insulin secretagogue can also be employed as an index of toxicity. Such promotion of appetite can be determined by observing body weight fluctuations using an animal, and hypoglycemia can be determined by investigating the concentration of glucose in blood. Loose passage that is cited as a side effect of α-glucosidase inhibitor can also be employed as an index of toxicity. Such loose passage and diarrhea can be investigated by, in the case of administration to animal, external observation of stool, or by analysis of stool amount and stool composition. Body weight gain that is cited as a side effect of insulin resistance improving agent can also be employed as an index of toxicity. Such body weight gain can be investigated by measurement of body weight after administration to animal. Gastrointestinal dysfunction that is cited as a side effect of HMG-CoA reductase inhibitor can also be employed as an index of toxicity. Such gastrointestinal dysfunction can be investigated by analysis of stool amount and stool composition. Gastrointestinal dysfunction that is cited as a side effect of clofibrate type drugs can also be employed as an index of toxicity. […]

Where [10] appears, read: in the condition of a reduced dosage.

Take `CN(C)S(=O)(=O)Nc1cc([C@@H](O)CNCCOc2ccc3c(c2)oc2ccccc23)ccc1O` [compound g, (R)-N′-[5-[2-[2-(dibenzofuran-3-iloxy)ethylamino]-1-hydroxyethyl]-2-hydroxyphenyl]-N,N-dimethyl sulfonyl amide]: the “blood glucose level (glucose in blood plasma)” value (from here on “blood glucose level”) in [1] is on record as “almost no difference in the blood glucose level”. Moreover, in series [2], the “relaxation of bladder compression muscle, combination with propiverine” value (from here on “relaxation … with propiverine”) was “relaxed significantly”; the “relaxation of bladder compression muscle, combination with oxybutynin” value (“relaxation … with oxybutynin” below) is reported as “relaxed significantly”; the “relaxation of bladder compression muscle, combination with tolterodine” value (from here on “relaxation … with tolterodine”) is given as “relaxed significantly”; the “concentration at which the bladder compression muscle was significantly relaxed” value is given as 10^−7 M. The “concentration at which the muscle was not relaxed significantly” value in series [2] is 10^−9 M. Also, the plasma triglyceride level entry in the series with Mice [3] was “no difference”. Further, the body weight result in series [4] is recorded as “almost no change in body weight”. In addition, the “blood glucose level” value in [5] is given as “no difference in the blood glucose level”. The body weight result in series [6] is listed as “almost no change in body weight”. Moreover, the “blood glucose level” value in series [7] is reported as “no difference”. In addition, in the series with Mice [8], the “blood glucose level” value is recorded as “no change in blood glucose level”.

Consider `CS(=O)(=O)Nc1cc([C@@H](O)CNCCOc2ccc3c(c2)[nH]c2ccccc23)ccc1Cl` [compound h, (R)-N-[5-[2-[2-(9H-carbazole-2-iloxy)ethylamino]-1-hydroxyethyl]-2-chlorophenyl]methanesulfonamide], for which the “blood glucose level” value is given as “almost no difference in the blood glucose level” in series [1], “no difference in the blood glucose level” in [5], “no difference” in [7] and “no change in blood glucose level” in the series with Mice [8]. Further, the “relaxation … with propiverine” value in series [2] is given as “relaxed significantly”. For the same molecule, the “relaxation … with oxybutynin” value in [2] is “relaxed significantly”. In series [2], the “relaxation … with tolterodine” value is listed as “relaxed significantly”. Further, the “concentration at which the bladder compression muscle was significantly relaxed” value in [2] is 10^−6 M. Also, in [2], the “concentration at which the muscle was not relaxed significantly” value is listed as 10^−8 M. In the series with Mice [3], the plasma triglyceride level entry was “no difference”. The body weight entry in [4] and in [6] was “almost no change in body weight” each time.

In the case of `CS(=O)(=O)Nc1cc([C@@H](O)CNCCOc2ccc3c(c2)[nH]c2ccccc23)ccc1Br` [compound i, (R)-N-[5-[2-[2-(9H-carbazole-2-iloxy)ethylamino]-1-hydroxyethyl]-2-bromophenyl]methanesulfonamide], the “blood glucose level” value in [1] is “almost no difference in the blood glucose level”. Moreover, in series [2], the “relaxation … with propiverine” value is listed as “relaxed significantly”; the “relaxation … with oxybutynin” value is listed as “relaxed significantly”; the “relaxation … with tolterodine” value was “relaxed significantly”; the “concentration at which the bladder compression muscle was significantly relaxed” value is reported as 10^−6 M. In series [2], the “concentration at which the muscle was not relaxed significantly” value is 10^−8 M. Besides, in the series on Mice [3], the plasma triglyceride level entry is recorded as “no difference”. Further, the body weight result in [4] is “almost no change in body weight”. In addition, in series [5], the “blood glucose level” value is recorded as “no difference in the blood glucose level”. Besides, the body weight result in series [6] is “almost no change in body weight”. Besides, the “blood glucose level” value in series [7] is “no difference”. Besides, in the series with Mice [8], the “blood glucose level” value is “no change in blood glucose level”.

Take `CCN(CC)CC#CCOC(=O)C(O)(c1ccccc1)C1CCCCC1` (stereo not drawn) [oxybutynin, reference compound]: the “suppression of salivation (mouth dryness side effect)” value (“suppression of salivation” below) in [9] (setting [10]) is listed as “observed”. Also, in series [2], the “concentration at which the bladder compression muscle was significantly relaxed” value is 10^−8 M and the “concentration at which the muscle was not relaxed significantly” value is listed as 10^−9 M.

For the molecule `CCCOC(C(=O)OC1CCN(C)CC1)(c1ccccc1)c1ccccc1` [propiverine, reference compound], the “suppression of salivation” value in series [9] (setting [10]) is listed as “observed”. Further, in series [2], the “concentration at which the bladder compression muscle was significantly relaxed” value is 10^−5 M and the “concentration at which the muscle was not relaxed significantly” value is reported as 10^−6 M.

Consider `Cc1ccc(O)c([C@H](CCN(C(C)C)C(C)C)c2ccccc2)c1` [tolterodine, reference compound], for which the “suppression of salivation” value in [9] (in vivo) is “observed”. Further, in series [2], the “concentration at which the bladder compression muscle was significantly relaxed” value is given as 10^−8 M and the “concentration at which the muscle was not relaxed significantly” value is listed as 10^−9 M.
